Literature values, collected in PMC11457607 (Oncoimmunology, 2024).

How the values were obtained:
NETs = details: local irradiation, clinical trials
SSTR2 = details: cyclic peptide agonist; in words
SSTR5 = details: cyclic peptide agonist; in words
[1] = clinical diagnostic dye, i.v.

In the case of [^177Lu]Lu-DOTA-TATE, the “slowing progression of NETs” value (NETs) is listed as “high specificity and efficacy in slowing the progression of NETs”.
In the case of DOTA-Tyr[3]-octreotate [DOTA-TATE], the “affinity to SSTR2” value (SSTR2) is given as “high affinity to SSTR2” and the “affinity to SSTR5” value (SSTR5) is given as “binds with a high affinity to SSTR2 and SSTR5”.
In the case of `O=C1OC2(c3ccc(O)cc3Oc3cc(O)ccc32)c2ccccc21` [fluorescein], the “safety of intravenous injection” value [1] is given as “without reported overt safety concerns”.
